Reference: US20230203023A1, “SALT AND CRYSTAL FORMS OF GLP-1R AGONISTS AND USES THEREOF” (QILU REGOR THERAPEUTICS INC., priority 2020, published 2023)
Counter-ions that a name gives are not always drawn.

Key:
Type in all cases: physicochemical
[1] = Kinetic solubility test in water and bio-relevant media (SGF, FaSSIF, FeSSIF); details: for S: solubility: 37° C.; for Purity (%), area percentage of API: for reference only (suspensions); for FC: form change: residual solids by XRPD; for pH: supernatant
How it was run: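 Solids (~1 mg/mL loading as freeform) rolled at 25 rpm, 37° C in water, SGF (pH 1.8), FaSSIF (pH 6.5) or FeSSIF (pH 5.0). Sampled at 1, 4 and 24 h, centrifuged and filtered (0.45 μm PTFE). Supernatant concentration by HPLC, with pH measured; residual solids checked by XRPD.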

[2] = Solid stability evaluation (II/II), HPLC in triplicate
Procedure: The chemical stability of 1:1 Compound II Citrate Salt (Form A) and 1:1 Compound II Tris Salt (Form B) was further evaluated at solid state, samples were stored under the ambient condition or 40° C./75% RH for 1 day and 3 days, respectively.

[3] = Solution stability evaluation in SGF (pH 1.8) and pH 8.0 buffer at RT
Procedure: Weigh 100 mg of sodium chloride and 50 mg of Triton X-100 into a 50-mL volumetric flask. Add appropriate volume of purified water and sonicate until all solids are completely dissolved. Add about 68 μL of 12 M HCl and sufficient purified water closely to the target volume and adjust to pH 1.8. Dilute to volume with purified water, mix well and check the pH with a pH meter.
Add sufficient purified water closely to the target volume and adjust to pH 8.0. Dilute to volume with purified water, mix well and check the pH with a pH meter. […]
Solution stability was evaluated for 1:1 Compound II Citrate Salt (Form A) and 1:1 Compound II Tris Salt (Form B) in SGF (pH 1.8) and pH 8.0 buffer at RT. Clear solutions were prepared at two concentrations (0.01 mg/mL, 0.05 mg/mL) and then placed at RT for 6 hours, 1/5 days or 6 hours, 1/3/7 days. […] The HPLC purity and pH value were tested and the results were summarized from Table 7-3-1 to Table 7-3-4.

[4] = 0.01 mg/mL, pH 1.8 (SGF), Initial
[5] = 0.01 mg/mL, pH 1.8 (SGF), RT, 6 hours
[6] = 0.01 mg/mL, pH 8.0 (50 mM phosphate), Initial
[7] = 0.01 mg/mL, pH 8.0 (50 mM phosphate), RT, 6 hours
[8] = 0.05 mg/mL, pH 1.8 (SGF), Initial
[9] = 0.05 mg/mL, pH 1.8 (SGF), RT, 6 hours
[10] = 0.05 mg/mL, pH 8.0 (50 mM phosphate), Initial
[11] = 0.05 mg/mL, pH 8.0 (50 mM phosphate), RT, 6 hours
[12] = 1 day, 0.01 mg/mL, pH 1.8 (SGF), RT
[13] = 1 day, 0.01 mg/mL, pH 8.0 (50 mM phosphate), RT
[14] = 1 day, 0.05 mg/mL, pH 1.8 (SGF), RT
[15] = 1 day, 0.05 mg/mL, pH 8.0 (50 mM phosphate), RT
[16] = 5 days, 0.01 mg/mL, pH 1.8 (SGF), RT
[17] = 5 days, 0.01 mg/mL, pH 8.0 (50 mM phosphate), RT
[18] = 5 days, 0.05 mg/mL, pH 1.8 (SGF), RT
[19] = 5 days, 0.05 mg/mL, pH 8.0 (50 mM phosphate), RT

Question: Which results are given for `N#Cc1ccc(COc2cccc(C3=CCN(Cc4nc5ccc(C(=O)O)cc5n4C[C@@H]4CCO4)CC3)n2)c(F)c1` [Citrate salt Form A, (S)-2-((6-((4-cyano-2-fluorobenzyl)oxy)-3′,6′-dihydro-[2,4′-bipyridin]-1′(2′H)-yl)methyl)-1-(oxetan-2-ylmethyl)-1H-benzo[d]imidazole-6-carboxylic acid]?
Answer: S: solubility ([1]; FaSSIF, 1 hour): 0.1 mg/mL; Purity (%), area percentage of API ([1]; FaSSIF, 1 hour): 94.86%; S: solubility ([1]; FaSSIF, 4 hours): 0.02 mg/mL; Purity (%), area percentage of API ([1]; FaSSIF, 4 hours): 76.06%; S: solubility ([1]; FaSSIF, 24 hours): 0.009 mg/mL; Purity (%), area percentage of API ([1]; FaSSIF, 24 hours): 61.96%; S: solubility ([1]; FeSSIF, 1 hour): 0.2 mg/mL; Purity (%), area percentage of API ([1]; FeSSIF, 1 hour): 98.94%; S: solubility ([1]; FeSSIF, 4 hours): 0.3 mg/mL; Purity (%), area percentage of API ([1]; FeSSIF, 4 hours): 95.25%; S: solubility ([1]; FeSSIF, 24 hours): 0.09 mg/mL; Purity (%), area percentage of API ([1]; FeSSIF, 24 hours): 79.88%; S: solubility ([1]; H2O, 1 hour): 0.02 mg/mL; Purity (%), area percentage of API ([1]; H2O, 1 hour): 100.00%; S: solubility ([1]; H2O, 4 hours): 0.02 mg/mL; Purity (%), area percentage of API ([1]; H2O, 4 hours): 91.26%; S: solubility ([1]; H2O, 24 hours): 0.05 mg/mL; Purity (%), area percentage of API ([1]; H2O, 24 hours): 86.05%; S: solubility ([1]; SGF, 1 hour): 0.5 mg/mL; Purity (%), area percentage of API ([1]; SGF, 1 hour): 96.79%; S: solubility ([1]; SGF, 4 hours): 0.08 mg/mL; Purity (%), area percentage of API ([1]; SGF, 4 hours): 91.83%; S: solubility ([1]; SGF, 24 hours): 0.06 mg/mL; Purity (%), area percentage of API ([1]; SGF, 24 hours): 90.59%; FC: form change ([1]; FaSSIF, 1 hour): No; FC: form change ([1]; FaSSIF, 4 hours): No; FC: form change ([1]; FaSSIF, 24 hours): Yes; FC: form change ([1]; FeSSIF, 1 hour): No; FC: form change ([1]; FeSSIF, 24 hours): Yes; FC: form change ([1]; H2O, 1 hour): No; FC: form change ([1]; H2O, 4 hours): No; FC: form change ([1]; H2O, 24 hours): No; FC: form change ([1]; SGF, 1 hour): Yes; FC: form change ([1]; SGF, 4 hours): Yes; FC: form change ([1]; SGF, 24 hours): Yes; pH ([1]; FaSSIF, 1 hour): 6.3; pH ([1]; FaSSIF, 4 hours): 6.3; pH ([1]; FaSSIF, 24 hours): 6.0; pH ([1]; FeSSIF, 1 hour): 5.0; pH ([1]; FeSSIF, 4 hours): 5.0; pH ([1]; FeSSIF, 24 hours): 4.9; pH ([1]; H2O, 1 hour): 4.8; pH ([1]; H2O, 4 hours): 4.2; pH ([1]; H2O, 24 hours): 3.4; pH ([1]; SGF, 1 hour): 1.9; pH ([1]; SGF, 4 hours): 1.9; pH ([1]; SGF, 24 hours): 1.9; Solubility in SGF, FaSSIF and FeSSIF compared with freeform ([1]; within 1 hour): higher than that of freeform; Ave. Purity (area %) ([2]; 40° C./75% RH (open), 1 day): 97.8 area %; Ave. Purity (area %) ([2]; 40° C./75% RH (open), 3 days): 97.9 area %; Ave. Purity (area %) ([2]; Ambient condition (open), 1 day): 97.8 area %; Ave. Purity (area %) ([2]; Ambient condition (open), 3 days): 97.8 area %; Ave. Purity (area %) ([2]; Initial): 97.9 area %; Purity (% area) [3, 4]: 100.00 % area; pH [3, 4]: 1.8; Purity (% area) [3, 5]: 100.00 % area; Purity vs. Initial (%) [3, 5]: 100.0%; pH [3, 5]: 1.8; Purity (% area) [3, 6]: 98.67 % area; pH [3, 6]: 8.0; Purity (% area) [3, 7]: 97.89 % area; Purity vs. Initial (%) [3, 7]: 99.2%; pH [3, 7]: 8.0; Purity (% area) [3, 8]: 97.84 % area; pH [3, 8]: 1.8; Purity (% area) [3, 9]: 97.54 % area; Purity vs. Initial (%) [3, 9]: 99.7%; pH [3, 9]: 1.8; Purity (% area) [3, 10]: 98.22 % area; pH [3, 10]: 8.0; Purity (% area) [3, 11]: 98.03 % area; Purity vs. Initial (%) [3, 11]: 99.8%; pH [3, 11]: 8.0; Purity (% area) [3, 12]: 98.51 % area; Purity vs. Initial (%) [3, 12]: 98.5%; pH [3, 12]: 1.8; Purity (% area) [3, 13]: 97.36 % area; Purity vs. Initial (%) [3, 13]: 98.7%; pH [3, 13]: 8.0; Purity (% area) [3, 14]: 96.61 % area; Purity vs. Initial (%) [3, 14]: 98.7%; pH [3, 14]: 1.8; Purity (% area) [3, 15]: 97.95 % area; Purity vs. Initial (%) [3, 15]: 99.7%; pH [3, 15]: 8.0; Purity (% area) [3, 16]: 94.05 % area; Purity vs. Initial (%) [3, 16]: 94.1%; pH [3, 16]: 1.9; Purity (% area) [3, 17]: 97.14 % area; Purity vs. Initial (%) [3, 17]: 98.5%; pH [3, 17]: 7.9; Purity (% area) [3, 18]: 92.31 % area; Purity vs. Initial (%) [3, 18]: 96.1%; pH [3, 18]: 1.8; Purity (% area) [3, 19]: 97.75 % area; Purity vs. Initial (%) [3, 19]: 99.5%; pH [3, 19]: 8.0
